Earlier results on 1 compound are cited in patent US5977138A, “Ether muscarinic antagonists” (Schering Corporation, priority 1997, dated 1999).

For the data set, the system named is m2 muscarinic receptor. To be noted: Baumgold et al., Eur. J. of Pharmacol., 251 (1994) 315-317.

For the compound `C[C@H]1CC[C@@H]2N(C1)C[C@H]1[C@@H]3C[C@H]4[C@@H](CC(=O)[C@H]5C[C@@H](Cl)CC[C@@]54C)[C@@H]3CC[C@H]1[C@]2(C)O` [3-α-chloroimperialine], the “m2 selective muscarinic antagonism” value is on record as “highly selective m2 muscarinic antagonist”.
